Assay results: the supplement of paper PMC8920030

Key:
Settings in all cases: growth mode: biofilm, 24 h; exposure time: 24 h
[1] = compound: T1, CCC(C)CCCC(=O)N[C@@H](CCN)C(=O)N[C@H](C(=O)N[C@@H](CCN)C(=O)N[C@H]1CCNC(=O)[C@H]([C@@H](C)O)NC(=O)[C@H](CCN)NC(=O)[C@H](CCN)NC(=O)[C@H](CC(C)C)NC(=O)[C@@H](CC(C)C)NC(=O)[C@H](CCN)NC1=O)[C@@H](C)O [colistin]; test: minimum concentration of killing, 2-log CFU reduction of biofilm (MCK99); higher = more biofilm tolerance
Experimental: (§1)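 Clinical P. aeruginosa isolates were grown as static biofilms for 24 h at 37 °C in LB in half-area 96-well plates, then exposed for 24 h to colistin at 1, 4, 16, 64, 256 or […]. Surviving CFU were counted by spotting serial dilutions. MCK is the lowest tested concentration giving the stated log reduction in CFU versus an untreated control; '>1024' means the reduction was not reached at the top dose, and 1 is the lowest dose tested (≤1).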

[2] = compound: T1, colistin; test: minimum concentration of killing, 1-log CFU reduction of biofilm (MCK90); higher = more biofilm tolerance
Experimental: as §1

[3] = compound: T2, NC[C@H]1O[C@H](O[C@H]2[C@H](O)[C@@H](O[C@H]3O[C@H](CO)[C@@H](O)[C@H](N)[C@H]3O)[C@H](N)C[C@@H]2N)[C@H](N)C[C@@H]1O [tobramycin]; test: minimum concentration of killing, 4-log CFU reduction of biofilm (MCK99.99); higher = more biofilm tolerance
Experimental: as §1, with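 “tobramycin” for “colistin”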

[4] = compound: T2, tobramycin; test: minimum concentration eradicating biofilm below detection limit (MCK-E); higher = more biofilm tolerance
Experimental: as §1, with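 “tobramycin” for “colistin”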

[5] = compound: T1, colistin; test: as above
Experimental: as §1

[6] = compound: T1, colistin; test: minimum concentration of killing, 4-log CFU reduction of biofilm (MCK99.99); higher = more biofilm tolerance
Experimental: as §1

[7] = compound: T2, tobramycin; test: minimum concentration of killing, 2-log CFU reduction of biofilm (MCK99); higher = more biofilm tolerance
Experimental: as §1, with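 “tobramycin” for “colistin”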

[8] = compound: T2, tobramycin; test: minimum concentration of killing, 1-log CFU reduction of biofilm (MCK90); higher = more biofilm tolerance
Experimental: as §1, with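 “tobramycin” for “colistin”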

Pseudomonas aeruginosa clinical isolate CH2660
minimum concentration of killing [1]: 256 µg/mL
minimum concentration of killing [2]: 64 µg/mL
minimum concentration of killing [3]: 64 µg/mL
minimum concentration eradicating biofilm below detection limit [4]: 256 µg/mL
minimum concentration eradicating biofilm below detection limit [5]: 256 µg/mL
minimum concentration of killing [6]: 256 µg/mL
minimum concentration of killing [7]: 64 µg/mL
minimum concentration of killing [8]: 4 µg/mL

Pseudomonas aeruginosa clinical isolate CH2672
minimum concentration of killing [1]: 256 µg/mL
minimum concentration of killing [2]: 256 µg/mL
minimum concentration of killing [3]: 256 µg/mL
minimum concentration eradicating biofilm below detection limit [4]: > 1020 µg/mL
minimum concentration eradicating biofilm below detection limit [5]: 256 µg/mL
minimum concentration of killing [6]: 256 µg/mL
minimum concentration of killing [7]: 64 µg/mL
minimum concentration of killing [8]: 16 µg/mL

Pseudomonas aeruginosa clinical isolate CH2677
minimum concentration of killing [1]: 64 µg/mL
minimum concentration of killing [2]: 64 µg/mL
minimum concentration of killing [3]: 1020 µg/mL
minimum concentration eradicating biofilm below detection limit [4]: > 1020 µg/mL
minimum concentration eradicating biofilm below detection limit [5]: 256 µg/mL
minimum concentration of killing [6]: 256 µg/mL
minimum concentration of killing [7]: 1020 µg/mL
minimum concentration of killing [8]: 256 µg/mL

Pseudomonas aeruginosa clinical isolate CH5550
minimum concentration of killing [1]: 256 µg/mL
minimum concentration of killing [2]: 256 µg/mL
minimum concentration of killing [3]: 1020 µg/mL
minimum concentration eradicating biofilm below detection limit [4]: 1020 µg/mL
minimum concentration eradicating biofilm below detection limit [5]: > 1020 µg/mL
minimum concentration of killing [6]: > 1020 µg/mL
minimum concentration of killing [7]: 16 µg/mL
minimum concentration of killing [8]: 16 µg/mL

Pseudomonas aeruginosa clinical isolate CH5596
minimum concentration of killing [1]: 64 µg/mL
minimum concentration of killing [2]: 64 µg/mL
minimum concentration of killing [3]: 64 µg/mL
minimum concentration eradicating biofilm below detection limit [4]: 256 µg/mL
minimum concentration eradicating biofilm below detection limit [5]: 256 µg/mL
minimum concentration of killing [6]: 256 µg/mL
minimum concentration of killing [7]: 4 µg/mL
minimum concentration of killing [8]: 4 µg/mL

Pseudomonas aeruginosa clinical isolate CH5597
minimum concentration of killing [1]: 64 µg/mL
minimum concentration of killing [2]: 64 µg/mL
minimum concentration of killing [3]: 256 µg/mL
minimum concentration eradicating biofilm below detection limit [4]: 256 µg/mL
minimum concentration eradicating biofilm below detection limit [5]: 64 µg/mL
minimum concentration of killing [6]: 64 µg/mL
minimum concentration of killing [7]: 64 µg/mL
minimum concentration of killing [8]: ≤ 1 µg/mL

Pseudomonas aeruginosa clinical isolate CH5621
minimum concentration of killing [1]: 256 µg/mL
minimum concentration of killing [2]: 256 µg/mL
minimum concentration of killing [3]: > 1020 µg/mL
minimum concentration eradicating biofilm below detection limit [4]: > 1020 µg/mL
minimum concentration eradicating biofilm below detection limit [5]: 256 µg/mL
minimum concentration of killing [6]: 256 µg/mL
minimum concentration of killing [7]: 1020 µg/mL
minimum concentration of killing [8]: 64 µg/mL

Pseudomonas aeruginosa clinical isolate CH5638
minimum concentration of killing [1]: 256 µg/mL
minimum concentration of killing [2]: 64 µg/mL
minimum concentration of killing [3]: 1020 µg/mL
minimum concentration eradicating biofilm below detection limit [4]: 1020 µg/mL
minimum concentration eradicating biofilm below detection limit [5]: 256 µg/mL
minimum concentration of killing [6]: 256 µg/mL
minimum concentration of killing [7]: 16 µg/mL
minimum concentration of killing [8]: 16 µg/mL

Pseudomonas aeruginosa clinical isolate ESP001
minimum concentration of killing [1]: 64 µg/mL
minimum concentration of killing [2]: 64 µg/mL
minimum concentration of killing [3]: 256 µg/mL
minimum concentration eradicating biofilm below detection limit [4]: 1020 µg/mL
minimum concentration eradicating biofilm below detection limit [5]: 256 µg/mL
minimum concentration of killing [6]: 256 µg/mL
minimum concentration of killing [7]: 256 µg/mL
minimum concentration of killing [8]: 16 µg/mL

Pseudomonas aeruginosa clinical isolate ESP002
minimum concentration of killing [1]: 64 µg/mL
minimum concentration of killing [2]: 4 µg/mL
minimum concentration of killing [3]: 256 µg/mL
minimum concentration eradicating biofilm below detection limit [4]: 256 µg/mL
minimum concentration eradicating biofilm below detection limit [5]: 256 µg/mL
minimum concentration of killing [6]: 256 µg/mL
minimum concentration of killing [7]: 256 µg/mL
minimum concentration of killing [8]: 256 µg/mL

Pseudomonas aeruginosa clinical isolate ESP003
minimum concentration of killing [1]: 256 µg/mL
minimum concentration of killing [2]: 256 µg/mL
minimum concentration of killing [3]: 1020 µg/mL
minimum concentration eradicating biofilm below detection limit [4]: 1020 µg/mL
minimum concentration eradicating biofilm below detection limit [5]: 256 µg/mL
minimum concentration of killing [6]: 256 µg/mL
minimum concentration of killing [7]: 256 µg/mL
minimum concentration of killing [8]: 16 µg/mL

Pseudomonas aeruginosa clinical isolate ESP004
minimum concentration of killing [1]: 256 µg/mL
minimum concentration of killing [2]: 64 µg/mL
minimum concentration of killing [3]: 1020 µg/mL
minimum concentration eradicating biofilm below detection limit [4]: > 1020 µg/mL
minimum concentration eradicating biofilm below detection limit [5]: 256 µg/mL
minimum concentration of killing [6]: 256 µg/mL
minimum concentration of killing [7]: 1020 µg/mL
minimum concentration of killing [8]: 256 µg/mL

Pseudomonas aeruginosa clinical isolate ESP006
minimum concentration of killing [1]: 64 µg/mL
minimum concentration of killing [2]: 64 µg/mL
minimum concentration of killing [3]: 256 µg/mL
minimum concentration eradicating biofilm below detection limit [4]: 1020 µg/mL
minimum concentration eradicating biofilm below detection limit [5]: 256 µg/mL
minimum concentration of killing [6]: 64 µg/mL
minimum concentration of killing [7]: 64 µg/mL
minimum concentration of killing [8]: 16 µg/mL

Pseudomonas aeruginosa clinical isolate ESP009
minimum concentration of killing [1]: 64 µg/mL
minimum concentration of killing [2]: 64 µg/mL
minimum concentration of killing [3]: 256 µg/mL
minimum concentration eradicating biofilm below detection limit [4]: 1020 µg/mL
minimum concentration eradicating biofilm below detection limit [5]: 64 µg/mL
minimum concentration of killing [6]: 64 µg/mL
minimum concentration of killing [7]: 16 µg/mL
minimum concentration of killing [8]: 16 µg/mL

Pseudomonas aeruginosa clinical isolate ESP011
minimum concentration of killing [1]: 16 µg/mL
minimum concentration of killing [2]: 16 µg/mL
minimum concentration of killing [3]: 1020 µg/mL
minimum concentration eradicating biofilm below detection limit [4]: 1020 µg/mL
minimum concentration eradicating biofilm below detection limit [5]: 64 µg/mL
minimum concentration of killing [6]: 64 µg/mL
minimum concentration of killing [7]: 256 µg/mL
minimum concentration of killing [8]: 16 µg/mL

Pseudomonas aeruginosa clinical isolate ESP012
minimum concentration of killing [1]: 64 µg/mL
minimum concentration of killing [2]: 64 µg/mL
minimum concentration of killing [3]: > 1020 µg/mL
minimum concentration eradicating biofilm below detection limit [4]: > 1020 µg/mL
minimum concentration eradicating biofilm below detection limit [5]: 64 µg/mL
minimum concentration of killing [6]: 64 µg/mL
minimum concentration of killing [7]: > 1020 µg/mL
minimum concentration of killing [8]: 256 µg/mL

Pseudomonas aeruginosa clinical isolate ESP013
minimum concentration of killing [1]: 64 µg/mL
minimum concentration of killing [2]: 64 µg/mL
minimum concentration of killing [3]: > 1020 µg/mL
minimum concentration eradicating biofilm below detection limit [4]: > 1020 µg/mL
minimum concentration eradicating biofilm below detection limit [5]: 1020 µg/mL
minimum concentration of killing [6]: 256 µg/mL
minimum concentration of killing [7]: > 1020 µg/mL
minimum concentration of killing [8]: > 1020 µg/mL

Pseudomonas aeruginosa clinical isolate ESP015
minimum concentration of killing [1]: 256 µg/mL
minimum concentration of killing [2]: 64 µg/mL
minimum concentration of killing [3]: 256 µg/mL
minimum concentration eradicating biofilm below detection limit [4]: 256 µg/mL
minimum concentration eradicating biofilm below detection limit [5]: 256 µg/mL
minimum concentration of killing [6]: 256 µg/mL
minimum concentration of killing [7]: 64 µg/mL
minimum concentration of killing [8]: 4 µg/mL
